The record followed here is patent EP3693362B1, “PARASITIC PLANT GERMINATION REGULATOR” (National University Corporation Tokai National Higher …, priority 2017, dated 2019).

The structures appear in SMILES notation. Read-outs that look alike come from different tables or passages of the source. A value given as a limit tells only on which side of the number the result lay.

Common to all, as to test: Affinity for strigolactone receptor, YLG probe competition (fluorescence)
What all share (assay type): binding

Assay [1] has as its target T1, AtD14 (Arabidopsis thaliana, UniProt Q9SQR3).
T1 construct: made in house; host or cells: E. coli
T1 sequence (Q9SQR3 1-267): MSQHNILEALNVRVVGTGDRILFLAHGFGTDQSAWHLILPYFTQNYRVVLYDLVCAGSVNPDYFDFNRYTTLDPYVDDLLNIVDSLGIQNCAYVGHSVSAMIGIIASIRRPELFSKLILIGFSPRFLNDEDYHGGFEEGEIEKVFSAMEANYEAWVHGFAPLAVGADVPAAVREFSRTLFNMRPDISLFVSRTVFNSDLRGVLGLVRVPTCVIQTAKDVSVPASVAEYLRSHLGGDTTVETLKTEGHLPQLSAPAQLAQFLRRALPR
The text has this:
PTL 1 reports that the affinity of a test compound for the strigolactone receptor can be evaluated by reacting strigolactone with a probe for evaluation of affinity for a strigolactone receptor (e.g., YLG) in the presence of the test compound, and measuring the fluorescence emitted from the decomposition product of YLG. […] The details are as follows.
(§1) An Arabidopsis thaliana strigolactone receptor (AtD14) was produced in accordance with a usual method. More specifically, cDNA of the receptor was obtained by RT-PCR, and expression and purification were carried out in E. coli. Additionally, Striga strigolactone receptors were produced by the method disclosed in PTL 1 (ShHTL1: amino acid SEQ ID NO: 1, ShHTL2: amino acid SEQ ID NO: 2, ShHTL3: amino acid SEQ ID NO: 3, ShHTL4: amino acid SEQ ID NO: 4, ShHTL5: amino acid SEQ ID NO: 5, ShHTLS: amino acid SEQ ID NO: 6, ShHTL7: amino acid SEQ ID NO: 7, ShHTLS: amino acid SEQ ID NO: 8, ShHTL9: amino acid SEQ ID NO: 9, ShHTL10: amino acid SEQ ID NO: 10, and ShHTL11: amino acid SEQ ID NO: 11.)
(§2) One hundred microliters of a reaction solution containing each of the obtained strigolactone receptors ([…]), YLG (final concentration: […]), and each of the test compounds (final concentration: 0.01 to 10 µM) or the control compound (5-deoxystrigol, final concentration: 0.01 to 10 µM) as a competitive compound (100 mM HEPES, 150 mM NaCl, pH: 7.0, 0.1% DMSO) was prepared and reacted in a 96 black-well plate (Greiner). Sixty after the initiation of the reaction, fluorescence was detected at an excitation wavelength of 480 nm and a detection wavelength of 520 nm using a fluorescence detector (SpectraMax i3, manufactured by Molecular Devices), and the fluorescence intensity was measured.

Assay [2] deals with T2, HTL7 (Striga hermonthica, UniProt A0A0M3PNA2).
T2 sequence (A0A0M3PNA2 1-271): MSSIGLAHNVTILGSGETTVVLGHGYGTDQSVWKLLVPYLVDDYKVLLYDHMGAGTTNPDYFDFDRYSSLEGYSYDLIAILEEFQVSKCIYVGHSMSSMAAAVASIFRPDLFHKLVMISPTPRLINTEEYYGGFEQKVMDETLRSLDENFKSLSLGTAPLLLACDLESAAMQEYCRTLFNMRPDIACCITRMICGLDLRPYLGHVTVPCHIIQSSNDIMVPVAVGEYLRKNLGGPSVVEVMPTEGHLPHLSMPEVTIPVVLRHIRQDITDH
The note with it: competition with YLG, test range 0.01 to 10 µM, pH 7.0, read-out: IC50 values of test compounds. The method, then: (§3) PTL 1 reports that the affinity of a test compound for the strigolactone receptor can be evaluated by reacting strigolactone with a probe for evaluation of affinity for a strigolactone receptor (e.g., YLG) in the presence of the test compound, and measuring the fluorescence emitted from the decomposition product of YLG. Therefore, the compounds synthesized in Example 1 were used as the test compounds, and the affinity for the strigolactone receptor was evaluated by a similar method to the above. The details are as follows.
as §1
as §2, with “measured. Based on the measurement results of fluorescence intensity, a Lineweaver-Burk plot was created to calculate the Km values, and the IC50 values of each of the test compounds and the control compound, which are competitive compounds.” for “measured.”
(§4) In Table 7, HTL1 to HTL11 refer to strigolactone receptors (SEQ ID NOs: 1 to 11), and AtD14 refer to the Arabidopsis thaliana strigolactone receptor.

Assay [3] deals with T3, HTL2 (Striga hermonthica, UniProt A0A0M4AMP1).
T3 sequence (A0A0M4AMP1 1-285): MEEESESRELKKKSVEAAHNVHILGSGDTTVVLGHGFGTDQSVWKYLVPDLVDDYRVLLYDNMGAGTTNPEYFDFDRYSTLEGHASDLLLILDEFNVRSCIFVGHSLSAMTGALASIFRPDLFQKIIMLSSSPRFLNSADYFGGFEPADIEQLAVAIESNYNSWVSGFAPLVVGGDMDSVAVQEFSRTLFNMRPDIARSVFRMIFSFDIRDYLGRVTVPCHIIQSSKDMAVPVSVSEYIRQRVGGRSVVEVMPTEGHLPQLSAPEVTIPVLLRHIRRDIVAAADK
The following applies: competition with YLG, test range 0.01 to 10 µM, pH 7.0, read-out: IC50 values of test compounds. As to the method:
as §3, §1
as §2, with “measured. Based on the measurement results of fluorescence intensity, a Lineweaver-Burk plot was created to calculate the Km values, and the IC50 values of each of the test compounds and the control compound, which are competitive compounds.” for “measured.”
as §4

Assay [4] deals with T4, HTL8 (Striga hermonthica, UniProt A0A0M4APJ4).
T4 sequence (A0A0M4APJ4 1-272): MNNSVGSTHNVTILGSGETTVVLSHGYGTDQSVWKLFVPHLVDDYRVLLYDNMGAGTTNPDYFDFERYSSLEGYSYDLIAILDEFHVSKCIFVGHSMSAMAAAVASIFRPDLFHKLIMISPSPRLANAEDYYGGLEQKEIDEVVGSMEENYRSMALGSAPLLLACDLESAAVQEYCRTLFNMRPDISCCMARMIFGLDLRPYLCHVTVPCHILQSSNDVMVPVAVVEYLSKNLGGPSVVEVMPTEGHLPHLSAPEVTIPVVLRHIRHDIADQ
The note with it: competition with YLG, test range 0.01 to 10 µM, pH 7.0, read-out: IC50 values of test compounds. The method, then: as §3, §1
as §2, with “measured. Based on the measurement results of fluorescence intensity, a Lineweaver-Burk plot was created to calculate the Km values, and the IC50 values of each of the test compounds and the control compound, which are competitive compounds.” for “measured.”
as §4

The target in assay [5] is T5, HTL9 (Striga hermonthica, UniProt A0A0M4AGW0).
T5 sequence (A0A0M4AGW0 1-271): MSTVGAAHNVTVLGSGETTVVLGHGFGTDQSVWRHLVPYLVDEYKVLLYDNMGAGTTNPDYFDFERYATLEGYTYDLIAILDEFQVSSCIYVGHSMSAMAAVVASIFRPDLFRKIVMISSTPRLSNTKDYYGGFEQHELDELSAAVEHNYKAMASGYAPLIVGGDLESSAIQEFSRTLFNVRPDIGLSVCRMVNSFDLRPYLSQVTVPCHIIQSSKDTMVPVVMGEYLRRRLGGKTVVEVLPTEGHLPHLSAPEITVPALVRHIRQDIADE
The following applies: competition with YLG, test range 0.01 to 10 µM, pH 7.0, read-out: IC50 values of test compounds. As to the method: as §3, §1
as §2, with “measured. Based on the measurement results of fluorescence intensity, a Lineweaver-Burk plot was created to calculate the Km values, and the IC50 values of each of the test compounds and the control compound, which are competitive compounds.” for “measured.”
as §4

The mark [6] stands for this setting: AtD14, competition with YLG, test range 0.01 to 10 µM, pH 7.0, read-out: IC50 values of test compounds.

As for `CC1=CC(OC=C2C(=O)OC3C4=C(CCCC4(C)C)CC23)OC1=O` (stereo not shown) [5-Ddeoxystriqol, 5-deoxystrigol, reference compound], the IC50 (as a rule, the concentration at which inhibition is half-maximal) in assay [1] (setting [6]) stood at 0.44 µM; in assay [2], 0.12 µM; in assay [3], 8.9 µM; in assay [4], 0.36 µM; in assay [5], 1.2 µM.
For the compound `CCCCOc1ccc(S(=O)(=O)N2CCN(C(=O)OC3C=C(C)C(=O)O3)CC2)cc1` (stereo not shown) [Compound 1], the IC50 was greater than 10 µM in assay [1]; 0.31 µM in assay [2]; greater than 10 µM in assay [3]; 1.1 µM in assay [4]; greater than 10 µM in assay [5].
Take `CC1=CC(OC(=O)NCc2ccccc2)OC1=O` (stereo not shown) [Comparison Compound 1, reference compound]: the IC50 in assay [2], in assay [3], in assay [4] and in assay [5] was greater than 10 µM throughout.
Regarding `CCCCOc1ccc(S(=O)(=O)N2CCN(C(=O)OC3C=CC(=O)O3)CC2)cc1` (stereo not shown) [Compound 13], the IC50 in assay [1] (setting [6]) is greater than 10 µM; in assay [2], 0.75 µM; in assay [3], greater than 10 µM; in assay [4], greater than 10 µM; in assay [5], greater than 10 µM.
